Measured values published in ChEMBL document CHEMBL4680219, “Structure-thermodynamics-relationships of hepatitis C viral NS3 protease inhibitors” (Eur J Med Chem, 2020).

What was measured:
[1] = Inhibition of HCV NS3/4a protease using biotin-DDIVPCSMSY[125I]TW as substrate by radiometric assay; design: species or system Hepacivirus hominis
[2] = Binding affinity to HCV NS3/4a protease by isothermal titration calorimetry; design: species or system Hepacivirus hominis

SMILES | Ki [1] | Kd [2]
C=CC1C[C@@]1(NC(=O)[C@@H]1C[C@@H](Oc2cc(-c3ccccc3)nc3cc(OC)ccc23)CN1C(=O)[C@@H](NC(=O)OC(C)(C)C)C(C)(C)C)C(=O)O (some centres undefined) | 20 nM | 19 nM
C=CC1C[C@@]1(NC(=O)[C@@H]1C[C@@H](Oc2ccnc3ccccc23)CN1C(=O)[C@@H](NC(=O)OC(C)(C)C)C(C)(C)C)C(=O)O (some centres undefined) | 140 nM | 190 nM
C=CC1C[C@@]1(NC(=O)[C@@H]1C[C@@H](Oc2ccnc3cc(OC)ccc23)CN1C(=O)[C@@H](NC(=O)OC(C)(C)C)C(C)(C)C)C(=O)O (some centres undefined) | 50 nM | 180 nM
C=CC1C[C@@]1(NC(=O)[C@@H]1C[C@@H](Oc2ccncc2)CN1C(=O)[C@@H](NC(=O)OC(C)(C)C)C(C)(C)C)C(=O)O (some centres undefined) | 29000 nM | 13500 nM
C=CC1C[C@@]1(NC(=O)[C@@H]1C[C@@H](Oc2cc(-c3ccccc3)nc3ccccc23)CN1C(=O)[C@@H](NC(=O)OC(C)(C)C)C(C)(C)C)C(=O)O (some centres undefined) |  | 100 nM
C=CC1C[C@@]1(NC(=O)[C@@H]1C[C@@H](Oc2cc(-c3ccccc3)nc3ccccc23)CN1C(=O)[C@H](CC)NC(=O)OC(C)(C)C)C(=O)O (some centres undefined) |  | 900 nM
C=CC1C[C@@]1(NC(=O)[C@@H]1C[C@@H](Oc2ccnc(-c3ccccc3)c2)CN1C(=O)[C@@H](NC(=O)OC(C)(C)C)C(C)(C)C)C(=O)O (some centres undefined) |  | 830 nM
C=CC1C[C@@]1(NC(=O)[C@@H]1C[C@@H](Oc2cc(-c3ccccc3)nc3ccccc23)CN1C(=O)[C@@H](NC(=O)OC(C)(C)C)C(C)C)C(=O)O (some centres undefined) |  | 250 nM
C=CC1C[C@@]1(NC(=O)[C@@H]1C[C@@H](Oc2cc(-c3ccccc3)nc3ccccc23)CN1C(=O)CNC(=O)OC(C)(C)C)C(=O)O (some centres undefined) |  | 77000 nM
C=CC1C[C@@]1(NC(=O)[C@@H]1C[C@@H](Oc2cc(-c3ccccc3)nc3ccccc23)CN1C(=O)[C@H](C)NC(=O)OC(C)(C)C)C(=O)O (some centres undefined) |  | 2630 nM
